We go through one sequence from patent US20120189673A1, “POLYPEPTIDES AND USES THEREOF” (priority 2009, published 2012).

Experiment [1] deals with thrombin induced fibrin network formation in normal human plasma. Put plainly: Clotting assay: thrombin clotting time (TCT). The class given is biochemical. As to the method:
(§1) Clotting assays. All clotting times were measured using an Amelung coagulometer. Activated partial thromboplastin time (aPTT) was measured by incubating the peptides diluted in sterile water at the indicated concentrations, with 100 μL citrated human plasma for 1 minute followed by the addition of 100 μL aPTT reagent (aPTT Automate, Diagnostica Stago) for 60 seconds at 37° C. Clotting was initiated by the addition of 100 μL of a 25-mM CaCl2 solution. In the prothombrin time assay (PT), clotting was initiated by the addition of 100 μL Thrombomax with calcium (PT reagent; Sigma-Aldrich). For measuring the thrombin clotting time (TCT), clotting was initiated by the addition of 100 μL Accuclot thrombin time reagent (TCT reagent; Sigma-Aldrich).

In experiment [2] the test system is intrinsic pathway of coagulation in normal human plasma. Put plainly: Clotting assay: activated partial thromboplastin time (aPTT). The class given is biochemical. As to the method: as §1
The test system of another experiment is E. coli. Put plainly: Viable count analysis, E. coli. The class given is cell-based, Escherichia coli. As to the method: Viable count analysis. E. coli ATCC 25922 bacteria were grown to mid-logarithmic phase in Todd-Hewitt (TH) medium. Bacteria were washed and diluted in 10 mM Tris, pH 7.4 containing 5 mM glucose. E. coli ATCC 25922 (50 μl; 2×10^6 cfu/ml) were incubated, at 37° C. for 2 h with peptides at the indicated concentrations. Other experiments with the TFPI-peptides and LL-37 were performed in 10 mM Tris, pH 7.4, containing also 0.15 M NaCl, with normal or heat inactivated 20% citrate-plasma (PP). Serial dilutions of the incubation mixture were plated on TH agar, followed by incubation at 37° C. overnight and cfu determination.
(§2) Viable count analysis—E. coli strains were grown to mid-logarithmic phase in Todd-Hewitt (TH). P. aeruginosa strains were grown in TH overnight. Bacteria were washed and diluted in 10 mM Tris, pH 7.4 containing 5 mM glucose. 2×10^6 cfu/ml bacteria were incubated in 50 μl, at 37° C. for 2 h with the C-terminal TFPI-derived peptides GGL27, TKR22, or LIK17 at the indicated concentrations. Additional experiments were performed in 10 mM Tris, pH 7.4, containing 0.15 M NaCl, either alone or with 20% normal or heat inactivated citrate-plasma. Serial dilutions of the incubation mixture were plated on TH agar, followed by incubation at 37° C. overnight and cfu determination.

The next experiment deals with P. aeruginosa. Put plainly: Viable count analysis, P. aeruginosa. The experiment is classed as cell-based, Pseudomonas aeruginosa. To be noted: 20% human citrate plasma. The procedure: as §2

Turning to “TKRKRKKQRVKIAYEEIFVKNM [TKR22, C-terminal peptide of TFPI]”, the “thrombin clotting time (TCT)” value in experiment [1] is on record as “not significantly affected”. In addition, the “activated partial thromboplastin time (aPTT)” value in experiment [2] is recorded as “impair the intrinsic pathway of coagulation”. Also, the “bactericidal activity in presence of human plasma” value in the experiment on E. coli (0.15 M NaCl, 10 mM Tris, pH 7.4 with 20% human citrate plasma, versus buffer) was “significantly enhanced”. For the same sequence, the “bactericidal activity in heat-inactivated plasma” value in the experiment on E. coli (20% heat-inactivated human citrate plasma) is recorded as “abolished the potentiation”. The “killing in human plasma compared with physiological buffer” value in the experiment with P. aeruginosa is reported as “not enhanced”.
